Source: patent EP0565593B1, “REDUCING PESTICIDAL INTERACTIONS IN CROPS” (priority 1990, dated 1992)

Experiments:
Format in all cases: in vivo
RICE = assay: Multi-crop greenhouse test, soil-applied (Examples 65, 66; Tables 64, 65)
Description: (§1) Tests according to this invention in various crops indicate widespread application of the invention. In Examples 62-66 below are described tests with a variety of herbicides contacted with COUNTER® 15G in the presence and absence of MON-7400 (Antidote No. 12); MON-13900 (No. 1); MON-4660 (No. 16) and flurazole (No. 16). Those tests were conducted according to Procedures IV or V described above and illustrated further in other foregoing examples. Plants used in all tests were, for crops (as abbreviated in parentheses); cotton (COTT); soybean (SOBE); CORN, grain sorghum (GRSO); wheat (WHEA) and RICE, and the weeds giant foxtail (GIFT) and velvetleaf (VELE). The data in the tables below represent averages of two replications.
(§2) In this test the crops and weeds were planted 1.3 cm deep in 13.7 cm X 27.7 cm pans containing Dupo silt loam soil. The test safeners were applied in acetone solution and COUNTER 15G as dry granules to soil cover layers and incorporated by shaking in a bag. Treated cover layers were placed on seeded pans which were transferred to greenhouse benches and subirrigated. Herbicide was applied POE six (6) days after PPI initiation and observations of plant injury made ten (10) days later; results are shown in Table 61. The herbicide used in this example was BEACON (No. 8).
(§3) In another test in the several crops and weeds used in this test series, the herbicidal component was MON-12000 (No. 1); the other components were the same. the procedure used in this test was the same as that described in Example 62, modified to use a light overhead irrigation (about 0.32 cm/day) during days 4-7 of the test. Table 64 […]

grain sorghum (GRSO) = assay: as above
Description: as §1, §2, §3

Corn = assay: Greenhouse test Procedure VII: biocide and antidote in furrow, herbicide POE (Examples 39-42, 48-50, 56-58; Tables 38-41, 47-49, 55-57); conditions: Antidote + Biocide No. 1 in furrow
Outline: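 Corn seed was planted in greenhouse pots, with COUNTER 15G insecticide plus antidote granules applied in-furrow (e.g. 1.1 + 0.37 mg a.i./cm, or 227 g/305 m with acetone-applied safeners). About five days later, herbicides in water with 0.25% v/v X-77 were track-sprayed post-emergence at 187 L/ha. Plant response was scored eight days afterward, with two to four replicates.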

[1] = Table 64, Herb. No. 1 0.018 Kg/Ha + Biocide No. 1 8.96 Kg/Ha + Antidote 4.48 Kg/Ha
[2] = Table 64, Herb. No. 1 0.07 Kg/Ha + Biocide No. 1 8.96 Kg/Ha + Antidote 4.48 Kg/Ha
[3] = Table 64, Herb. No. 1 0.28 Kg/Ha + Biocide No. 1 8.96 Kg/Ha + Antidote 4.48 Kg/Ha
[4] = Table 65, Herb. No. 1 0.018 Kg/Ha + Biocide No. 1 8.96 Kg/Ha + Antidote 4.48 Kg/Ha
[5] = Table 65, Herb. No. 1 0.07 Kg/Ha + Biocide No. 1 8.96 Kg/Ha + Antidote 4.48 Kg/Ha
[6] = Table 65, Herb. No. 1 0.28 Kg/Ha + Biocide No. 1 8.96 Kg/Ha + Antidote 4.48 Kg/Ha

## COC(=O)COC(c1ccccc1)c1ccccc1 [compound 12]
RICE; [1]
  % Inhibition RICE: 0%
RICE; [2]
  % Inhibition RICE: 10%
RICE; [3]
  % Inhibition RICE: 10%
RICE; [4]
  % Inhibition RICE: 0%
RICE; [5]
  % Inhibition RICE: 20%
RICE; [6]
  % Inhibition RICE: 70%
Grain sorghum (GRSO); [1]
  % Inhibition GRSO: 0%
Grain sorghum (GRSO); [2]
  % Inhibition GRSO: 15%
Grain sorghum (GRSO); [3]
  % Inhibition GRSO: 0%
Grain sorghum (GRSO); [4]
  % Inhibition GRSO: 0%
Grain sorghum (GRSO); [5]
  % Inhibition GRSO: 20%
Grain sorghum (GRSO); [6]
  % Inhibition GRSO: 55%
Corn; Herbicide No. 1 0.14 Kg/Ha POE, 8 days after POE
  % Inhibition Corn: 0%
Corn; Herbicide No. 4 0.17 Kg/Ha POE, 8 days after POE
  % Inhibition Corn: 0%
Corn; Herbicide No. 5 0.07 Kg/Ha POE, 8 days after POE
  % Inhibition Corn: 0%
Corn; Herbicide No. 6 0.01 Kg/Ha POE
  % Inhibition Corn: 0%
Corn; Herbicide No. 7 0.56 Kg/Ha POE, 8 days after POE
  % Inhibition Corn: 5%
Corn; Herbicide No. 9 0.009 Kg/Ha POE
  % Inhibition Corn: 0%
Corn; Herbicide No. 10 0.002 Kg/Ha POE, 8 days after POE
  % Inhibition Corn: 5%
Corn; Herbicide No. 15 0.0044 Kg/Ha POE, 8 days after POE
  % Inhibition Corn: 0%
Corn; Herbicide No. 16 0.01 Kg/Ha POE
  % Inhibition Corn: 15%
Corn; Herbicide No. 18 0.0044 Kg/Ha POE
  % Inhibition Corn: 10%
Corn; Herbicide No. 19 0.28 Kg/Ha POE
  % Inhibition Corn: 0%
Corn; Herbicide No. 21 0.14 Kg/Ha POE
  % Inhibition Corn: 5%
Corn; Herbicide No. 23 0.0006 Kg/Ha POE
  % Inhibition Corn: 5%
